What all share (assay type): biochemical
Assay [1] has as its target T1, JAK3 (Homo sapiens, UniProt P52333).
T1 sequence (P52333 1-1124): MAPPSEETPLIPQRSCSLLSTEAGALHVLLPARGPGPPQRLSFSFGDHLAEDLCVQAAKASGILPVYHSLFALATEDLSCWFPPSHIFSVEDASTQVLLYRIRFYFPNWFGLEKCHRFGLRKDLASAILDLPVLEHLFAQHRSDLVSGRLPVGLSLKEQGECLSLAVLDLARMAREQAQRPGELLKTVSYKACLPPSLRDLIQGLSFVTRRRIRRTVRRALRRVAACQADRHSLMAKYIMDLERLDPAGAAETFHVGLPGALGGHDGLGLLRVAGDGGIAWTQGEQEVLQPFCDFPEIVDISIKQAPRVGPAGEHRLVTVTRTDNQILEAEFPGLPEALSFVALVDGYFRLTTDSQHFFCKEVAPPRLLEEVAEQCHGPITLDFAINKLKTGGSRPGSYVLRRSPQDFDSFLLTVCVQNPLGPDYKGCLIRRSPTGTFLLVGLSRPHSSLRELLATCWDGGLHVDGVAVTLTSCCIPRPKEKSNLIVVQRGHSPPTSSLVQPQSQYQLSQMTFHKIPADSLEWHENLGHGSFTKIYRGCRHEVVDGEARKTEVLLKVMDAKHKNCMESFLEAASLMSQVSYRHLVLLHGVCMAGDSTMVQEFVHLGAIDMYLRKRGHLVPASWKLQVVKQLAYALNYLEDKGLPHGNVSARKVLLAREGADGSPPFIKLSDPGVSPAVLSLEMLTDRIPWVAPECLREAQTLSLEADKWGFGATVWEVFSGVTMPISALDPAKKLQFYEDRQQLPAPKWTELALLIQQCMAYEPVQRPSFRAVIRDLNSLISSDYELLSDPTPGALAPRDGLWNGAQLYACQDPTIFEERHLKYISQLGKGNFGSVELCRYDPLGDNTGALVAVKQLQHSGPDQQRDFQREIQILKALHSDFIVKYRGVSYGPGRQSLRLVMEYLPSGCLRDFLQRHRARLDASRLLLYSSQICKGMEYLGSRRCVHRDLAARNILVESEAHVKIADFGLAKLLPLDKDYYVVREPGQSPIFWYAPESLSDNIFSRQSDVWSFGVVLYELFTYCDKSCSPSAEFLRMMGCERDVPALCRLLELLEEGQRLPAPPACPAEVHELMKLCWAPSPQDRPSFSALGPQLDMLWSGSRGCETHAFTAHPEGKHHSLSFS
Put plainly: JAK3 inhibition assay (33P incorporation into poly(Glu)4Tyr). The settings on record: enzyme inhibition, Table 5. Here is the method: (§1) Compounds were screened for their ability to inhibit JAK using the assay shown below. Reactions were carried out in a kinase buffer containing 100 mM HEPES (pH 7.4), 1 mM DTT, 10 mM MgCl2, 25 mM NaCl, and 0.01% BSA.
(§2) Substrate concentrations in the assay were 5 μM ATP (200 μCi/μmole ATP) and 1 μM poly(Glu)4Tyr. Reactions were carried out at 25° C. and 1 nM JAK3.
(§3) To each well of a 96 well polycarbonate plate was added 1.5 μl of a candidate JAK3 inhibitor along with 50/1 of kinase buffer containing 2 μM poly(Glu)4Tyr and 10 μM ATP. This was then mixed and 50 μl of kinase buffer containing 2 nM JAK3 enzyme was added to start the reaction. After 20 minutes at room temperature (25 C), the reaction was stopped with 50 μl of 20% trichloroacetic acid (TCA) that also contained 0.4 mM ATP. The entire contents of each well were then transferred to a 96 well glass fiber filter plate using a TomTek Cell Harvester. After washing, 60 μl of scintillation fluid was added and ^33P incorporation detected on a Perkin Elmer TopCount.

Assay [2] has as its target ROCK I (Homo sapiens, UniProt Q13464). Put plainly: ROCK-I inhibition assay (radioactive enzyme assay, MBP substrate). The settings on record: enzyme inhibition, Ki(app), Table 5. Here is the method:
Compounds were screened for their ability to inhibit ROCK using a standard radioactive enzyme assay. Assays were carried out in a solution containing 100 mM HEPES (pH 7.5), 10 mM MgCl2, 25 mM NaCl, 2 mM DTT, and 1.5% DMSO. Final substrate concentrations in the assay were 13 μM [γ-^33P] ATP (25 mCi ^33P ATP/mmol ATP, Perkin Elmer, Cambridge, Mass./Sigma Chemicals, St Louis, Mo.) and 27 μM Myelin Basic Protein (MBP). Final enzyme concentration in the assay was 5 nM ROCK. Assays were carried out at room temperature. 1.5 μl of DMSO stock containing serial dilutions of the compound of the present invention (concentrations ranging from 10 μM to 2.6 nM) was placed in a 96 well plate. 50 μl of Solution 1 (100 mM HEPES (pH 7.5), 10 mM MgCl2, […]) was added to the plate. The reaction was initiated by addition of 50 μl of Solution 2 (100 mM HEPES (pH 7.5), 10 mM MgCl2, 4 mM DTT, […] and 10 nM ROCK). After 2 hours the reaction was quenched with 50 μL of 30% trichloroacetic acid (TCA, Fisher) containing 9 mM ATP. Transfer of 140 μL of the quenched reaction to a glass fiber filter plate (Corning, Cat. No. 3511) was followed by washing 3 times with 5% TCA. 50 μl of Optima Gold scintillation fluid (Perkin Elmer) was added and the plates were counted on a Top Count (Perkin Elmer). After removing mean background values for all of the data points the data was fit using Prism software to obtain a Ki(app).

Assay [3] concerns the target JAK2 (Homo sapiens, UniProt O60674). Put plainly: JAK2 inhibition assay (as Example 3 with JAK-2 enzyme). The settings on record: enzyme inhibition, Table 5. Here is the method: as §1, §2, §3
The assays were as described above in Example 3 except that JAK-2 enzyme was used, the final poly(Glu)4Tyr concentration was 15 μM, and final ATP concentration was 12 μM.

Each structure is given as a SMILES string. pKi: −log10 of the molar value. A value given as a limit tells only on which side of the number the result lay.

Sequence of JAK2 (O60674 whole entry): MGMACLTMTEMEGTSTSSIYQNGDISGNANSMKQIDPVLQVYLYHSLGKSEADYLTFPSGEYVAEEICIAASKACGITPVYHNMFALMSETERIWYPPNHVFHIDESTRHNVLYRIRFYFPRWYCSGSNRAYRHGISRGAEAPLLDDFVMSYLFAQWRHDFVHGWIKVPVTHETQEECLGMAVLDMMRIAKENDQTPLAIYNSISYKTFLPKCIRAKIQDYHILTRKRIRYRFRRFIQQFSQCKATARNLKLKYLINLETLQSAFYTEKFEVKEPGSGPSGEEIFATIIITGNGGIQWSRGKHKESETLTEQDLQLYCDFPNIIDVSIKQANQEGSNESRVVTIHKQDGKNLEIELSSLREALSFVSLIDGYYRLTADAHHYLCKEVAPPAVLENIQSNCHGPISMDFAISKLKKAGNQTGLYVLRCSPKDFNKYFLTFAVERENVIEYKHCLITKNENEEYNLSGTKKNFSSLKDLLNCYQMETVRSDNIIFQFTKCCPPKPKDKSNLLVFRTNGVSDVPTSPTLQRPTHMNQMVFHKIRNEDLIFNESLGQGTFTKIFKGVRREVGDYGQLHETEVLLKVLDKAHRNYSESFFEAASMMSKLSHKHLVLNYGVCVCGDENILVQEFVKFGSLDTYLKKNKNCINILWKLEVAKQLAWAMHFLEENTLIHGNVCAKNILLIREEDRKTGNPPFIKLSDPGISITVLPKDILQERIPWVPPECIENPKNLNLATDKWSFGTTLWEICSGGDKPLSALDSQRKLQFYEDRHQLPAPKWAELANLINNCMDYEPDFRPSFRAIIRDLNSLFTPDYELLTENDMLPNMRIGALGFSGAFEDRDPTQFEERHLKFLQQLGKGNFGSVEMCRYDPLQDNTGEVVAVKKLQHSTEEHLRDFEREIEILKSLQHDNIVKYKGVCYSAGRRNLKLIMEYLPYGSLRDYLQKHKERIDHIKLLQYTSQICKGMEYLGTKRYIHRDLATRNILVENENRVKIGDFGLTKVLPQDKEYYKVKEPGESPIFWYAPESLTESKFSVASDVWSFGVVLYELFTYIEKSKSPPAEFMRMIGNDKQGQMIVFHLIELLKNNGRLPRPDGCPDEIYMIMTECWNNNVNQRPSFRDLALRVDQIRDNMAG
Sequence of ROCK I (Q13464 whole entry): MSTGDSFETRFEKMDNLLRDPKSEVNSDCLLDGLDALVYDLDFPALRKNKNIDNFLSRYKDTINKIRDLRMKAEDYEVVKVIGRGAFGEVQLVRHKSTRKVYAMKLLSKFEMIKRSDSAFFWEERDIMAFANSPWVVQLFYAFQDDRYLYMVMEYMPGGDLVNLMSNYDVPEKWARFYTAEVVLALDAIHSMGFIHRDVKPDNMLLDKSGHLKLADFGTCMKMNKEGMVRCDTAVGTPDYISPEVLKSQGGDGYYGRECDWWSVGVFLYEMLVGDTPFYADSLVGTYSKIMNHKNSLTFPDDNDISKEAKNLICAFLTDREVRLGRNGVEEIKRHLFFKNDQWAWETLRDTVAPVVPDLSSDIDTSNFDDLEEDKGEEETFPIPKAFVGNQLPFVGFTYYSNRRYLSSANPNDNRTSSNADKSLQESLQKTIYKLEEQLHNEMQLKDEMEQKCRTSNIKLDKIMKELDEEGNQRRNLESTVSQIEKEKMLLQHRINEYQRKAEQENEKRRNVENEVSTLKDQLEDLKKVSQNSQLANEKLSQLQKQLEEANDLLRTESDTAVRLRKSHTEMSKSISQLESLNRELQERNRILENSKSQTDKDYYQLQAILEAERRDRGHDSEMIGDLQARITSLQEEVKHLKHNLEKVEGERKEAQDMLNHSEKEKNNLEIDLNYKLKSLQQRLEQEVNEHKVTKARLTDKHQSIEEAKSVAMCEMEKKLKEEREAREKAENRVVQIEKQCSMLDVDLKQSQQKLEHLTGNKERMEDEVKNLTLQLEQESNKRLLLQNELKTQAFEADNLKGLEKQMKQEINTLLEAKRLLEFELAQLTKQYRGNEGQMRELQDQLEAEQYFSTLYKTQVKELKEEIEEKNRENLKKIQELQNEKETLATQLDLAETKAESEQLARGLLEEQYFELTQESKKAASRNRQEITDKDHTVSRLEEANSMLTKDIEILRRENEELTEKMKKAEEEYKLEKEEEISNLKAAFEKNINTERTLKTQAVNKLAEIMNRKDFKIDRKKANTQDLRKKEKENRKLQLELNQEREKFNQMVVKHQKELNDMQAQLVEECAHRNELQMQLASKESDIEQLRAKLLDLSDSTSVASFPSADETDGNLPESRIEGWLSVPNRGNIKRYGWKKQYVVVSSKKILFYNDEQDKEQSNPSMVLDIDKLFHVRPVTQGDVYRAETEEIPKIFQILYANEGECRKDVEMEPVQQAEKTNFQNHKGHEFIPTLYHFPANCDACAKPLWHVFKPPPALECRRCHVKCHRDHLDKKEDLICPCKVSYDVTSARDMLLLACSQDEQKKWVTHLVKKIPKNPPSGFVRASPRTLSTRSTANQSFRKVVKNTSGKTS

Consider `CCC(CO)NC(=O)c1ccc(-c2ccnc3[nH]ccc23)s1` (racemic) [compound 14], for which the pKi in assay [1] and in assay [2] was more than 6.30 each time.
In assay [1], `COc1ccc(-c2ccnc3[nH]ccc23)cc1OC` [compound 1, 4-(3,4-dimethoxyphenyl)-1H-pyrrolo[2,3-b]pyridine] had a pKi of 5.30 to 6.30.
As to `O=C(N[C@H](CO)c1cccc(Cl)c1)c1cc(-c2ccnc3[nH]ccc23)c[nH]1` [compound 2], in assay [1], the pKi was 5.30 to 6.30.
For `CS(=O)(=O)Nc1cccc(CC(=O)Nc2cc(-c3ccnc4[nH]ccc34)cs2)c1` [compound 3], the pKi in assay [1] and in assay [2] was more than 6.30 each time.
As to `O=C(c1ccc(-c2ccnc3[nH]ccc23)s1)N1CCNCC1` [compound 4], the pKi in assay [1] and in assay [2] was more than 6.30 throughout.
On to `O=C(NCC1CCCO1)c1ccc(-c2ccnc3[nH]ccc23)s1` (stereo not drawn) [compound 6], for which the negative-log Ki (pKi) in assay [1] and in assay [2] was more than 6.30 in each case.
Take `CCCNC(=O)c1ccc(-c2ccnc3[nH]ccc23)s1` [compound 7]: the pKi in assay [1] and in assay [2] was more than 6.30 each time.
As for `O=C(NCCO)c1ccc(-c2ccnc3[nH]ccc23)s1` [compound 8], the pKi in assay [1] and in assay [2] was more than 6.30 throughout.
`COCCNC(=O)c1ccc(-c2ccnc3[nH]ccc23)s1` [compound 9]: the pKi in assay [1] and in assay [2] was more than 6.30 throughout.
On to `O=C(c1ccc(-c2ccnc3[nH]ccc23)s1)N1CCC[C@H]1CO` [compound 10], for which the pKi in assay [1] and in assay [2] was more than 6.30 throughout.
On to `O=C(c1ccc(-c2ccnc3[nH]ccc23)s1)N1CCC[C@@H]1CO` [compound 11], for which the pKi in assay [1] and in assay [2] was more than 6.30 in each case.
Regarding `COC[C@@H]1CCCN1C(=O)c1ccc(-c2ccnc3[nH]ccc23)s1` [compound 12], the pKi in assay [1] and in assay [2] was 5.30 to 6.30 throughout.
In the case of `COC[C@H]1CCCN1C(=O)c1ccc(-c2ccnc3[nH]ccc23)s1` [compound 13], the pKi in assay [1] and in assay [2] was more than 6.30 each time.
Consider `C[C@@H](CO)NC(=O)c1ccc(-c2ccnc3[nH]ccc23)s1` [compound 15], for which the negative-log Ki (pKi) in assay [1] and in assay [2] was more than 6.30 throughout.
Regarding `CC(C)C(CO)NC(=O)c1ccc(-c2ccnc3[nH]ccc23)s1` (stereo not drawn) [compound 16], the pKi in assay [1] and in assay [2] was more than 6.30 throughout.
As to `CCC(CC)NC(=O)c1ccc(-c2ccnc3[nH]ccc23)s1` [compound 17], the pKi in assay [1] and in assay [2] was more than 6.30 throughout.
For `CC(=O)N1CCCN(c2cccc(-c3ccnc4[nH]ccc34)n2)CC1` [compound 18], the pKi was 5.30 to 6.30 in assay [1], more than 6.30 in assay [3] and 5.30 to 6.30 in assay [2].
For the compound `N#CCC(=O)N1CCCN(c2cccc(-c3ccnc4[nH]ccc34)n2)CC1` [compound 19], the pKi was 5.30 to 6.30 in assay [1], more than 6.30 in assay [3] and 5.30 to 6.30 in assay [2].
Take `CC(C)CNc1cccc(-c2ccnc3[nH]ccc23)n1` [compound 20]: the pKi in assay [1], in assay [3] and in assay [2] was 5.30 to 6.30 each time.
For the compound `CC(=O)N(Cc1ccccc1)c1cc(-c2ccnc3[nH]ccc23)cs1` [compound 21], the pKi was more than 6.30 in assay [1] and 5.30 to 6.30 in assay [2].
Consider `CC(=O)N1[C@H](C)CN(c2cccc(-c3ccnc4[nH]ccc34)n2)C[C@@H]1C` [compound 22], for which the pKi is more than 6.30 in assay [1], more than 6.30 in assay [3] and 5.30 to 6.30 in assay [2].
Turning to `COCC(=O)Nc1cc(-c2ccnc3[nH]ccc23)cs1` [compound 23], the negative logarithm of the Ki (pKi) was 5.30 to 6.30 in assay [1] and more than 6.30 in assay [2].
As for `c1cc(NC2CCCC2)nc(-c2ccnc3[nH]ccc23)c1` [compound 24, N-Cyclopentyl-6-(1H-pyrrolo[2,3-b]pyridin-4-yl)pyridin-2-amine], the pKi in assay [1] and in assay [3] was 5.30 to 6.30 in each case.
With `CC1CCCN(c2cccc(-c3ccnc4[nH]ccc34)n2)C1` (stereo not drawn) [compound 25, 4-(6-(3-Methylpiperidin-1-yl)pyridin-2-yl)-1H-pyrrolo[2,3-b]pyridine], the results for the pKi in assay [1], in assay [3] and in assay [2] were 5.30 to 6.30, more than 6.30 and more than 6.30, respectively.
Turning to `CC(=O)N1CCN(c2cccc(-c3ccnc4[nH]ccc34)n2)CC1` [compound 26, 1-(4-(6-(1H-pyrrolo[2,3-b]pyridin-4-yl)pyridin-2-yl)piperazin-1-yl)ethanone], the pKi in assay [1], in assay [3] and in assay [2] was 5.30 to 6.30 each time.
`C1=C(c2ccnc3[nH]ccc23)CCC1` [compound 27, 4-Cyclopentenyl-1H-pyrrolo[2,3b]pyridine]: the pKi in assay [1], in assay [3] and in assay [2] was more than 6.30 throughout.
With `Clc1cnc2[nH]ccc2c1C1=CCCC1` [compound 28, 5-Chloro-4-cyclopentenyl-1H-pyrrolo[2,3b]pyridine], the pKi in assay [1] is more than 6.30; in assay [3], more than 6.30; in assay [2], 5.30 to 6.30.
As to `Clc1cnc2[nH]ccc2c1C1=CCCCC1` [compound 29, 5-Chloro-4-cyclohexenyl-1H-pyrrolo[2,3b]pyridine], the pKi in assay [1] is more than 6.30; in assay [3], more than 6.30; in assay [2], 5.30 to 6.30.
With `C1=C(c2ccnc3[nH]ccc23)CCCC1` [compound 30, 4-Cyclohexenyl-1H-pyrrolo[2,3b]pyridine], the pKi in assay [1], in assay [3] and in assay [2] was more than 6.30 each time.
For `CN(C)c1cccc(-c2ccnc3[nH]ccc23)c1` [compound 31, Dimethyl-[3-(1H-pyrrolo[2,3-b]pyridin-4-yl)-phenyl]-amine], the pKi in assay [1], in assay [3] and in assay [2] was more than 6.30 throughout.
On to `Clc1cnc2[nH]ccc2c1-c1cccc(NC2CCCC2)n1` [compound 32, 6-(5-Chloro-1H-pyrrolo[2,3-b]pyridin-4-yl)-N-cyclopentylpyrdin-2-anine], for which the pKi in assay [1] is less than 5.30; in assay [3], 5.30 to 6.30; in assay [2], 5.30 to 6.30.
With `Clc1ccccc1CNc1cccc(-c2ccnc3[nH]ccc23)n1` [compound 33, N-(2-Chlorobenzyl)-6-(1H-pyrrolo[2,3-b]pyridin-4-yl)pyridin-2-amine], the negative-log Ki (pKi) in assay [1], in assay [3] and in assay [2] was 5.30 to 6.30 each time.

Values taken from patent publication US8921376B2, “Pyrrolopyridines useful as inhibitors of protein kinase” (Vertex Pharmaceuticals Incorporated, priority 2005, dated 2014).
